Measurements from patent publication US4410516A, “1-N(αHydroxy-ω-aminoalkanoyl) derivatives of 5,3',4'-trideoxy- or 5,3', 4'-trideoxy-6'-N- methyl- or 5, 3', 4',6"-tetradeoxykannamyci B and production thereof” (Zaidan Hojin Biseibutsu Kagaku Kenkyu Kai, priority 1981, dated 1983).
≈ marks a conversion by molar mass, not a printed value.

Key:
[1] = tested on: Staphylococcus aureus 209P; assay: Minimum inhibitory concentration, serial dilution on nutrient agar; assay type: cell-based; conditions: 37° C., 18 hours incubation
[2] = tested on: Staphylococcus aureus AP01; assay: as above; assay type: cell-based; conditions: 37° C., 18 hours incubation
[3] = tested on: Staphylococcus epidermidis 109; assay: as above; assay type: cell-based; conditions: Staphylococcus epidermidis, 109; nutrient agar, 37° C., 18 hours incubation; read-out: MIC
[4] = tested on: Micrococcus flavus FDA 16; assay: as above; assay type: cell-based; conditions: FDA16, nutrient agar, 37° C., 18 hours incubation, read-out: MIC
Sarcina lutea PCI 1001 = assay: as above; assay type: cell-based; conditions: Micrococcus luteus, PCI1001; nutrient agar, 37° C., 18 hours incubation; read-out: MIC
Bacillus anthracis = assay: microbe, parasite or virus in culture; assay type: cell-based; conditions: 18 h
[5] = tested on: Bacillus cereus ATCC 10702; assay: Minimum inhibitory concentration, serial dilution on nutrient agar; assay type: cell-based; conditions: ATCC10702, nutrient agar, 37° C., 18 hours incubation, read-out: MIC
[6] = tested on: Mycobacterium smegmatis ATCC 607; assay: as above; assay type: cell-based; conditions: Mycolicibacterium smegmatis, ATCC607; nutrient agar, 37° C., 18 hours incubation; read-out: MIC
Escherichia coli NIHJ = assay: as above; assay type: cell-based; conditions: nutrient agar, 37° C., 18 hours incubation, read-out: MIC
Escherichia coli K-12 = assay: as above; assay type: cell-based; conditions: K12, nutrient agar, 37° C., 18 hours incubation, read-out: MIC
Escherichia coli K-12 R5 = assay: as above; assay type: cell-based; conditions: K12R5, 18 h
[7] = tested on: Escherichia coli K-12 R 388; assay: as above; assay type: cell-based; conditions: K12R388, 18 h
[8] = tested on: Escherichia coli K-12 ML 1629; assay: as above; assay type: cell-based; conditions: K12ML1629, nutrient agar, 37° C., 18 hours incubation, read-out: MIC
[9] = tested on: Escherichia coli K-12 ML 1410; assay: as above; assay type: cell-based; conditions: K12ML1410, nutrient agar, 37° C., 18 hours incubation, read-out: MIC
[10] = tested on: Escherichia coli K-12 LA 290 R55; assay: as above; assay type: cell-based; conditions: K12LA290R55, 18 h
[11] = tested on: Escherichia coli K-12 LA 290 R56; assay: as above; assay type: cell-based; conditions: K12LA290R56, 18 h
[12] = tested on: Escherichia coli K-12 LA 290 R64; assay: as above; assay type: cell-based; conditions: K12LA290R64, 18 h
Escherichia coli W677 = assay: as above; assay type: cell-based; conditions: W677, nutrient agar, 37° C., 18 hours incubation, read-out: MIC
Escherichia coli JR255 = assay: as above; assay type: cell-based; conditions: JR255, nutrient agar, 37° C., 18 hours incubation, read-out: MIC
[13] = tested on: Klebsiella pneumoniae PCI 602; assay: as above; assay type: cell-based; conditions: PCI602, nutrient agar, 37° C., 18 hours incubation, read-out: MIC
[14] = tested on: Klebsiella pneumoniae 22 #3038; assay: as above; assay type: cell-based; conditions: 18 h
[15] = tested on: Shigella dysenteriae JS 11910; assay: as above; assay type: cell-based; conditions: JS11910, 18 h
Salmonella typhi T-63 = assay: as above; assay type: cell-based; conditions: Salmonella enterica, 18 h
[16] = tested on: Salmonella enteritidis 1891; assay: as above; assay type: cell-based; conditions: Salmonella enterica, 18 h
Proteus vulgaris OX19 = assay: as above; assay type: cell-based; conditions: 37° C., 18 hours incubation
Proteus rettgeri GN311 = assay: as above; assay type: cell-based; conditions: Providencia rettgeri, 37° C., 18 hours incubation
Serratia marcescens = assay: as above; assay type: cell-based; conditions: 37° C., 18 hours incubation
Serratia SOU = assay: as above; assay type: cell-based; conditions: 37° C., 18 hours incubation
Serratia 4 = assay: as above; assay type: cell-based; conditions: 37° C., 18 hours incubation
Providencia Pv 16 = assay: as above; assay type: cell-based; conditions: PV16, 37° C., 18 hours incubation
Providencia 2991 = assay: as above; assay type: cell-based; conditions: 37° C., 18 hours incubation
[17] = tested on: Pseudomonas aeruginosa A3; assay: as above; assay type: cell-based; conditions: 37° C., 18 hours incubation
[18] = tested on: Pseudomonas aeruginosa No. 12; assay: as above; assay type: cell-based; conditions: NO.12, 18 h
[19] = tested on: Pseudomonas aeruginosa H9; assay: as above; assay type: cell-based; conditions: H9, 18 h
[20] = tested on: Pseudomonas aeruginosa TI-13; assay: as above; assay type: cell-based; conditions: TI13, 18 h
[21] = tested on: Pseudomonas aeruginosa GN315; assay: as above; assay type: cell-based; conditions: GN315, nutrient agar, 37° C., 18 hours incubation, read-out: MIC
[22] = tested on: Pseudomonas aeruginosa 99; assay: as above; assay type: cell-based; conditions: Pseudomonas aeruginosa, 99, 18 h
[23] = tested on: Pseudomonas aeruginosa B-13; assay: as above; assay type: cell-based; conditions: B13, 37° C., 18 hours incubation
[24] = tested on: Pseudomonas aeruginosa 21-75; assay: as above; assay type: cell-based; conditions: 2175, 37° C., 18 hours incubation
[25] = tested on: Pseudomonas aeruginosa PST1; assay: as above; assay type: cell-based; conditions: PST1, nutrient agar, 37° C., 18 hours incubation, read-out: MIC
[26] = tested on: Pseudomonas aeruginosa ROS134/PU21; assay: as above; assay type: cell-based; conditions: ROS134/PU21, 18 h
[27] = Acute toxicity by intravenous injection in mice; conditions: mouse, in vivo

NCC[C@H](O)C(=O)N[C@@H]1C[C@H](N)[C@@H](O[C@H]2O[C@H](CN)CC[C@H]2N)C[C@H]1O[C@H]1O[C@H](CO)[C@@H](O)[C@H](N)[C@H]1O [AHB-trideoxyKMB, 1-N-[(S)-4-amino-2-hydroxybutyryl]-5,3',4'-trideoxykanamycin B]
MIC [1]: < 0.2 µg/mL | MIC [2]: 0.39 µg/mL (≈ 0.727 µM) | MIC [3]: 0.39 µg/mL (≈ 0.727 µM) | MIC [4]: 1.56 µg/mL (≈ 2.91 µM) | MIC (Sarcina lutea PCI 1001): 0.39 µg/mL (≈ 0.727 µM) | MIC (Bacillus anthracis): < 0.2 µg/mL | MIC [5]: 0.78 µg/mL (≈ 1.45 µM) | MIC [6]: 0.2 µg/mL (≈ 0.373 µM) | MIC (Escherichia coli NIHJ): 0.78 µg/mL (≈ 1.45 µM) | MIC (Escherichia coli K-12): 0.78 µg/mL (≈ 1.45 µM) | MIC (Escherichia coli K-12 R5): 100 µg/mL (≈ 186 µM) | MIC [7]: 0.78 µg/mL (≈ 1.45 µM) | MIC [8]: 1.56 µg/mL (≈ 2.91 µM) | MIC [9]: 1.56 µg/mL (≈ 2.91 µM) | MIC [10]: 3.13 µg/mL (≈ 5.83 µM) | MIC [11]: 0.78 µg/mL (≈ 1.45 µM) | MIC [12]: 0.78 µg/mL (≈ 1.45 µM) | MIC (Escherichia coli W677): 0.78 µg/mL (≈ 1.45 µM) | MIC (Escherichia coli JR255): 0.39 µg/mL (≈ 0.727 µM) | MIC [13]: 0.78 µg/mL (≈ 1.45 µM) | MIC [14]: 3.13 µg/mL (≈ 5.83 µM) | MIC [15]: 3.13 µg/mL (≈ 5.83 µM) | MIC (Salmonella typhi T-63): 25 µg/mL (≈ 46.6 µM) | MIC [16]: 3.13 µg/mL (≈ 5.83 µM) | MIC (Proteus vulgaris OX19): 0.39 µg/mL (≈ 0.727 µM) | MIC (Proteus rettgeri GN311): 25 µg/mL (≈ 46.6 µM) | MIC (Serratia marcescens): 25 µg/mL (≈ 46.6 µM) | MIC (Serratia SOU): 100 µg/mL (≈ 186 µM) | MIC (Serratia 4): 12.5 µg/mL (≈ 23.3 µM) | MIC (Providencia Pv 16): 12.5 µg/mL (≈ 23.3 µM) | MIC (Providencia 2991): 6.25 µg/mL (≈ 11.6 µM) | MIC [17]: 0.39 µg/mL (≈ 0.727 µM) | MIC [18]: 3.13 µg/mL (≈ 5.83 µM) | MIC [19]: 3.13 µg/mL (≈ 5.83 µM) | MIC [20]: 3.13 µg/mL (≈ 5.83 µM) | MIC [21]: 25 µg/mL (≈ 46.6 µM) | MIC [22]: 3.13 µg/mL (≈ 5.83 µM) | MIC [23]: 6.25 µg/mL (≈ 11.6 µM) | MIC [24]: 6.25 µg/mL (≈ 11.6 µM) | MIC [25]: 6.25 µg/mL (≈ 11.6 µM) | MIC [26]: > 100 µg/mL | LD50 [27]: 25 to 50 mg/kg
